Measurements as given in ChEMBL document CHEMBL1201862, “PubChem BioAssay data set” (2004).
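Method: 48-hour compound exposure of cells in 96-well plates, five concentrations, linear interpolation of endpoints. At the GI50, growth is halved.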 The source made the active and inactive calls. Rule as the data show it: active = GI50 up to about 1.1 µM and inactive = higher.

Key:
Experiment in all cases: inhibition of tumour cell growth, NCI panel, 48 h
[1] = tested on: COLO 205
[2] = tested on: HCT-116
[3] = tested on: KM12
[4] = tested on: MOLT-4
[5] = tested on: NCI-H226
[6] = tested on: NCI-H23
[7] = tested on: NCI-H522
[8] = tested on: NCI/ADR-RES
[9] = tested on: OVCAR-5
[10] = tested on: SK-MEL-2
[11] = tested on: SK-MEL-5
[12] = tested on: SN12C
[13] = tested on: U-251
[14] = tested on: UACC-62
[15] = tested on: A549
[16] = tested on: SF-539
[17] = tested on: SW-620
[18] = tested on: UACC-257
[19] = tested on: DMS-114
[20] = tested on: XF498

Measured: GI50

c1ccc(/N=C2\S/C(=N\C3CCCCC3)N(C3CCCCC3)\C2=N/c2ccccc2)cc1
inactive: [1] > 100 µM | [2] > 100 µM | [3] > 100 µM | [4] 37.8 µM | [5] > 100 µM | [6] > 100 µM | [7] > 100 µM | [8] > 100 µM | [9] > 100 µM | [10] > 100 µM | [11] 80.4 µM | [12] > 100 µM | [13] > 100 µM | [14] > 100 µM

CC1OC2=N[C@@H]1C(=O)N[C@@H](Cc1ccccc1)C1=N[C@H](C(=O)N[C@@H](Cc3ccccc3)C3=N[C@H](C(=O)N[C@H]2Cc2ccccc2)C(C)O3)C(C)O1 (stereo partly specified)
inactive: [15] 25.5 µM | [1] 18.6 µM | [2] 23.3 µM | [3] 61.1 µM | [5] 29.6 µM | [6] 37.2 µM | [8] 44.6 µM | [9] 30.3 µM | [16] 24.2 µM | [10] 25.1 µM | [11] 24.3 µM | [12] 36 µM | [17] 37.2 µM | [18] 30.4 µM | [14] 30.8 µM

COc1cc(C2(c3ncc[nH]3)SSSCC2O)ccc1O (stereo unspecified)
inactive: [15] > 57.4 µM | [1] 25.6 µM | [19] 18.2 µM | [2] 32.6 µM | [3] > 100 µM | [4] 16.5 µM | [5] 66.4 µM | [6] 60.7 µM | [7] 29.4 µM | [8] > 40.6 µM | [9] > 100 µM | [16] > 59 µM | [10] > 100 µM | [11] 11.7 µM | [12] 47.8 µM | [17] 33 µM | [13] > 56.2 µM | [18] 18.4 µM | [14] 22.6 µM | [20] > 71 µM

COc1ccc(C2C(Cl)C(=O)N2NC(=O)c2ccccc2O)cc1 (stereo unspecified)
inactive: [15] > 100 µM | [1] > 100 µM | [19] > 100 µM | [2] > 100 µM | [3] > 100 µM | [4] > 100 µM | [6] > 100 µM | [7] > 100 µM | [16] > 100 µM | [10] > 100 µM | [11] > 100 µM | [12] > 100 µM | [17] > 100 µM | [13] > 100 µM | [18] > 100 µM | [14] > 100 µM

CO/C=C1\OC(=O)C=C1OC
inactive: [15] > 100 µM | [1] > 100 µM | [19] > 100 µM | [2] > 100 µM | [3] > 100 µM | [4] > 100 µM | [5] > 100 µM | [6] > 100 µM | [7] > 100 µM | [8] > 100 µM | [9] > 100 µM | [16] > 100 µM | [10] > 100 µM | [11] > 100 µM | [12] > 100 µM | [17] > 100 µM | [13] > 31.6 µM | [18] > 100 µM | [14] > 100 µM | [20] > 100 µM

O=C1C2=C(C3=NCCc4c[nH]c1c43)c1c(Br)cc(Br)cc1CCN2
inactive: [15] 2.73 µM | [1] 1.29 µM | [19] 2.02 µM | [2] 1.84 µM | [3] 2.56 µM | [4] 1.35 µM | [5] 4.41 µM | [6] 1.79 µM | [7] 1.66 µM | [8] 4.71 µM | [9] 4.19 µM | [16] 3.42 µM | [10] 3.33 µM | [11] 1.62 µM | [12] 2.28 µM | [17] 2.24 µM | [13] 3.66 µM | [18] 1.5 µM | [14] 1.14 µM | [20] 10.7 µM

O=C(O)CNS(=O)(=O)c1ccc(NC(=O)Nc2ccccc2)cc1
inactive: [15] > 100 µM | [1] > 100 µM | [19] > 100 µM | [2] > 100 µM | [3] > 100 µM | [4] > 100 µM | [5] > 100 µM | [6] > 100 µM | [7] > 100 µM | [8] > 100 µM | [9] > 100 µM | [16] > 100 µM | [10] > 100 µM | [11] > 100 µM | [12] > 100 µM | [17] > 100 µM | [13] > 100 µM | [18] > 100 µM | [14] > 38.3 µM | [20] > 100 µM

CN(C)CCNC(=O)c1cccc2[nH]c(-c3ccc(Cl)cc3)nc12
inactive: [15] 3.66 µM | [1] 2.97 µM | [19] 8.61 µM | [2] 3.28 µM | [3] 6.95 µM | [4] 2.03 µM | [5] 4.59 µM | [6] 7.41 µM | [7] 6.14 µM | [8] 5.42 µM | [9] 10.3 µM | [16] 4.65 µM | [10] 13.4 µM | [11] 4.8 µM | [12] 5.07 µM | [17] 3.96 µM | [13] 5.42 µM | [18] 7.78 µM | [14] 5.53 µM | [20] 4.49 µM

Cn1ccnc1C(O)(c1nccn1C)c1nccn1C
inactive: [1] > 100 µM | [19] > 100 µM | [3] > 100 µM | [5] > 100 µM | [6] > 100 µM | [7] > 100 µM | [9] > 100 µM | [10] > 100 µM | [11] > 100 µM | [12] > 100 µM | [17] > 100 µM | [13] > 100 µM | [18] > 100 µM | [20] > 100 µM

CC1(C)COC(/C=C/C2=NC(C)(C)CO2)=N1
inactive: [15] 42.9 µM | [1] 14.4 µM | [2] 10.6 µM | [3] 13.9 µM | [4] 12.6 µM | [5] 20.9 µM | [6] 23.2 µM | [7] 2.77 µM | [8] 26.1 µM | [9] 20.4 µM | [16] 22 µM | [10] 26.5 µM | [11] 14 µM | [12] 1.95 µM | [17] 12.7 µM | [13] 21.1 µM | [18] 29.6 µM | [14] 15.1 µM

COC(=O)C1CCC(=O)N1C(=O)Cc1ccc(OC)cc1 (stereo unspecified)
inactive: [15] > 100 µM | [1] > 100 µM | [19] > 100 µM | [2] > 100 µM | [3] > 100 µM | [5] > 100 µM | [6] > 100 µM | [7] > 100 µM | [9] > 100 µM | [11] > 100 µM | [12] > 100 µM | [17] > 100 µM | [13] > 100 µM | [18] > 100 µM | [14] > 100 µM | [20] > 100 µM

CC1(C)C(=O)c2ccccc2OC1N1CCN(C2Oc3ccccc3C(=O)C2(C)C)CC1 (stereo unspecified)
inactive: [1] > 100 µM | [2] 82.4 µM | [3] > 100 µM | [4] > 100 µM | [5] > 100 µM | [6] > 100 µM | [7] > 100 µM | [8] > 100 µM | [9] > 100 µM | [11] > 100 µM | [12] > 100 µM | [17] > 100 µM | [13] > 100 µM | [14] 82.6 µM

COc1ccc(C(=O)Cc2ccc(Cl)cc2)cc1OC
inactive: [15] > 100 µM | [19] > 100 µM | [2] > 100 µM | [4] > 100 µM | [5] > 100 µM | [6] > 100 µM | [7] 64.9 µM | [9] > 100 µM | [16] > 100 µM | [10] > 100 µM | [11] > 100 µM | [12] > 100 µM | [17] > 100 µM | [13] > 100 µM | [18] > 100 µM | [14] > 100 µM | [20] > 100 µM

CC(=O)NNc1nc(C)c(C(=O)NNC(=O)C(=O)Nc2cccc(C(C)=O)c2)s1
inactive: [15] 34.8 µM | [1] 53.6 µM | [19] 18.3 µM | [2] 31.8 µM | [3] 24.7 µM | [4] 45.3 µM | [5] 22.8 µM | [6] 17.5 µM | [7] 15.2 µM | [9] > 100 µM | [16] 18.7 µM | [10] 36.1 µM | [11] 95.3 µM | [12] 15.9 µM | [17] 39.5 µM | [13] 26.6 µM | [18] 23.1 µM | [14] 16.3 µM | [20] 16.4 µM

COc1cc(C2c3cc4c(cc3OC3(O)COC(=O)C23)OCO4)cc(OC)c1OC (stereo unspecified)
inactive: [15] 67.5 µM | [19] 34.7 µM | [2] 51.1 µM | [4] 42.6 µM | [5] 32.6 µM | [6] 34.8 µM | [7] 22.7 µM | [9] > 100 µM | [16] 28.8 µM | [10] > 100 µM | [11] > 10 µM | [12] 67 µM | [17] 35 µM | [13] 38.4 µM | [18] 55 µM | [14] 44.3 µM | [20] 35.7 µM

COC(=O)c1c(O)ccc2c1c1c(n2Cc2cccc(C)c2)C(=O)c2ccccc2C1
inactive: [15] 25.2 µM | [1] 12.1 µM | [2] 7.85 µM | [4] 17.1 µM | [5] 19.7 µM | [6] 23.7 µM | [8] 15.5 µM | [9] 22 µM | [16] 17.1 µM | [10] 45 µM | [11] 29.2 µM | [12] 12.9 µM | [17] 26.2 µM | [13] 14.5 µM | [18] 46.1 µM | [14] 32.6 µM
